Values quoted from earlier work in patent US10189839B2, “Tricyclic imidazole compounds as inhibitors of tryptophan hydroxylase” (ACTELION PHARMACEUTICALS LTD, priority 2013, dated 2019).

Tests used:
[1] = tested on: blood 5HT and urinary 5HIAA; conditions: phase IIA study, qid; cited from earlier work
[2] = tested on: 5HT; conditions: in vivo; cited from earlier work
[3] = tested on: 5HT; conditions: 200 mg/kg i.p. qid for 3 days; cited from earlier work
[4] = tested on: cholangiocarcinoma; conditions: xenograft model of cholangiocarcinoma; cited from earlier work

| Compound | blood 5HT [1] | urinary 5HIAA reduction [1] | 5HT in the colon [2] | 5HT in the jejunum [2] | brain 5HT [2] | 5HT in the brain [3] [% original] | 5HT in the gut [3] [% original] | tumor volume [4] |
| --- | --- | --- | --- | --- | --- | --- | --- | --- |
| COc1cccc(-c2ccc([C@@H](Oc3cc(-c4ccc(C[C@H](N)C(=O)O)cc4)nc(N)n3)C(F)(F)F)cc2)c1 [LX1031, (S)-2-Amino-3-(4-{2-amino-6-[(R)-2,2,2-trifluoro-1-(3′-methoxy-biphenyl-4-yl)-ethoxy]-pyrimidin-4-yl}-phenyl)-propionic acid] | did not affect blood 5HT | up to 30% | only a minor reduction observed in the colon | lowers 5HT in the jejunum | no effect on brain 5HT | – | – | – |
| N[C@@H](Cc1ccc(Cl)cc1)C(=O)O (racemic) [PCA, p-chlorophenylalanine] | – | – | – | – | – | ~20 | ~50 | dramatic reduction in tumor volume |
